Consider four molecules from US20110305673A1, “COMPOSITIONS AND METHODS FOR TISSUE REPAIR” (The University of Vermont and State Agriculture College, priority 2008, published 2011).

The subject of assay [1] is cardiac progenitor cells. The experiment in a line: Signal transduction inhibitor study on CPC number (48 hrs). It counts as cell-based, rat. The settings on record: for cell number ratio to control cell number: CPCs in MSC CdM; for cell number ratio to control cell number / effect on number/growth of CPCs in MSC conditioned media: 48 hrs; for effect on number/growth of CPCs in MSC conditioned media: inhibitor 10 μM. The procedure: Serum-free conditioned media was prepared as described previously (Kiel et al., Cell 2005; 121:1109-1121). cardiac progenitor cells and cardiac fibroblasts were plated at 500 cells/cm^2 and cultured in their growth medium. Three days after plating the medium was removed, the wells were washed twice with PBS, and the cells were then exposed to conditioned media or to fresh serum-free medium (α-MEM). For time course proliferation studies, the conditioned media and serum-free medium were changed every 2 days. […] All inhibitors were from Calbiochem (EMD Chemicals, San Diego, Calif.) and were dissolved in dimethyl sulfoxide (DMSO). Cardiac progenitor cells were cultured in conditioned media with the inhibitors or with the equivalent volume of DMSO as a control for 48 hrs. In the protection study, 3 days after plating, the medium was replaced with either the conditioned media or serum-free medium and the cells were exposed to hypoxia in a specialized incubator (1% oxygen) for 48 hours. The hypoxia incubator was a model that measured both CO2 and O2 (Thermo Electron, Form a Series II, model 3130). Oxygen was maintained at 1% by the injection of nitrogen gas and was monitored continuously. Cell numbers were quantified by the fluorescent labeling of nucleic acids (CyQuant dye; Molecular Probes, Carlsbad, Calif.) and with a microplate fluorescence reader (FLX800; Bio-Tek Instruments Inc., Winooski, Vt.) set to 480 nm excitation and 520 nm emission. Each experiment was repeated a minimum of 3 times.

Assay [2] deals with cardiac progenitor cells. In words: CPC protection study under hypoxia (1% oxygen, 48 hours). It counts as cell-based, rat. The settings on record: inhibitor 10 μM. The procedure:
Serum-free conditioned media was prepared as described previously (Kiel et al., Cell 2005; 121:1109-1121). cardiac progenitor cells and cardiac fibroblasts were plated at 500 cells/cm^2 and cultured in their growth medium. Three days after plating the medium was removed, the wells were washed twice with PBS, and the cells were then exposed to conditioned media or to fresh serum-free medium (α-MEM). For time course proliferation studies, the conditioned media and serum-free medium were changed every 2 days. In the signal transduction inhibitor studies the following pharmacological inhibitors, were used (10 micromolar): AG490, an inhibitor of Jak2/STAT3 pathway; Stattic, a specific inhibitor of STAT3 phosphorylation at Tyr^705; LY294002, inhibitor of phosphatidylinositol 3-kinase (PI3K)/Akt pathway; and PD98059, extracellular signal-regulated kinase (ERK) inhibitor. […] The hypoxia incubator was a model that measured both CO2 and O2 (Thermo Electron, Form a Series II, model 3130). Oxygen was maintained at 1% by the injection of nitrogen gas and was monitored continuously. Cell numbers were quantified by the fluorescent labeling of nucleic acids (CyQuant dye; Molecular Probes, Carlsbad, Calif.) and with a microplate fluorescence reader (FLX800; Bio-Tek Instruments Inc., Winooski, Vt.) set to 480 nm excitation and 520 nm emission. […]

In the next assay the test system is CD133dMSCs. In words: Puromycin kill curve. It counts as cell-based, human. The settings on record: after 3 days. The procedure: Based on observations that CD133dMSCs increased their secretion of SDF-1 in culture following exposure to hypoxia and mRNA expression in vivo after injection into stroke penumbra, the role of SDF-1 in mediating the benefits of CD133dMSC CdM was explored using lentiviral shRNA knockdown of SDF-1 with puromycin-selectable vectors. In preliminary studies, kill curves were performed with transduced CD133dMSCs incubated in puromycin-containing culture medium to remove cells that were not transduced by lentivirus. […] Following lentiviral transduction of expanded CD133dMSCs from a single donor with a scrambled shRNA vector, 2 different shRNAs vectors against SDF-1, or a control selectable GFP vector, ELISAs and FACS assays were performed to characterize the cells.

Take `N#C/C(=C/c1ccc(O)c(O)c1)C(=O)NCc1ccccc1` [AG490]: the “cell number ratio to control cell number” value with cardiac progenitor cells [1] (1 μM) is on record as 96.3±0.9%. Further, the “cell number ratio to control cell number” value with cardiac progenitor cells [1] (5 μM) is 89.5±0.9%. Moreover, in the assay with cardiac progenitor cells [1] (10 μM, 48 hours), the “effect on CPC numbers in growth medium” value is recorded as “not AG490 significantly diminished”, the “effect on number of CPCs in conditioned media from fibroblasts” value is given as “inhibitory effect”, the “effect on number of CPCs in conditioned media from p75MSCs” value was “inhibitory effect” and the “effect on number of CPCs in serum-free medium” value was “significantly reduced”. For the same molecule, in the assay with cardiac progenitor cells [1] (10 μM), the “cell number ratio to control cell number” value was found to be 43.4±2.4%. The “effect on protective effects of conditioned media during hypoxia” value in the assay with cardiac progenitor cells [2] is on record as “inhibited the protective effects”.
Take `O=[N+]([O-])c1ccc2c(c1)S(=O)(=O)C=C2` [Stattic]: the “effect on number/growth of CPCs in MSC conditioned media” value in the assay with cardiac progenitor cells [1] was “completely blocked”. Also, the “effect on protective effects of conditioned media during hypoxia” value in the assay on cardiac progenitor cells [2] is “blocked the protective effects”.
For `COc1ccc(C[C@H](N)C(=O)N[C@H]2[C@@H](O)[C@H](n3cnc4c(N(C)C)ncnc43)O[C@@H]2CO)cc1` [puromycin], the “concentration sufficient to remove all untransduced CD133dMSCs” value in the assay on CD133dMSCs was found to be 2 µg/mL.
In the case of `COc1cccc(-c2cc(=O)c3ccccc3o2)c1N` [PD98059], in the assay with cardiac progenitor cells [1], the “effect on number/growth of CPCs in MSC conditioned media” value is reported as “did not block”.
